Measurements reported in patent publication US6492128B1, “Drug screen targeting lipoprotein-membrane anchorage” (Ramot University Authority for Applied Research & …, priority 1997, dated 2002).
Blank lines part the entries; values can stand above or below the compound they belong to.

What was measured:
[1] = molecular target: T1, oncogenic Ras in isolated EJ cell membranes (Homo sapiens, UniProt P01112, G12V); assay: Cell-free assay: dislodging of Ras from isolated EJ cell membranes; assay type: biochemical, rat; conditions: for Dislodging of Ras (% of control) in a cell free system (10 μM drug): isolated EJ cell membranes, Ras in pellet; for dislodging of Ras from isolated membrane: 10 μM
T1 construct: expressed in transfected cells; host or cells: Rat1 fibroblasts transformed with Ha-Ras (EJ cells)
Description: The cell-free assay is utilized in these next experiments; i.e. the effect of FTS on Ras in isolated membranes was investigated. Briefly, we used EJ cell membranes (total particulate fraction) prepared in homogenization buffer (10 mM Tris-HCl, pH 8.5, 0.32 M sucrose) with protease inhibitors. The membranes were stored in aliquot at −70° C. and thawed prior to use. In a standard assay, membranes containing 15 μg of protein are incubated in a total volume of 100 μl of homogenization buffer with or without drug for 60 min at 37° C. The drugs are prepared freshly in 100% DMSO, and diluted with 50 mM Tris-HCl pH 8.5 to yield 5× drug concentration in 10% DMSO. It is important to prepare these solutions at room temperature, otherwise the drugs may precipitate. The drug solutions (20 μl) are pipetted into the assay tubes, the membrane/buffer mixtures (80 μl) are quickly added, the tubes are gently mixed, and the tubes are transferred to a 37° C. shaking water bath. The reactions are stopped by addition of 900 μl of cold homogenization buffer (without sucrose) containing 10 μg BSA. Following a 5 min incubation at room temperature, the membranes are pelleted by centrifugation in a benchtop microfuge (14,000 rpm). The supernatants are removed and the pellets are subjected to mini-SDS-PAGE followed by Immunoblotting (pan anti-Ras antibodies) and ECL assays. These assays are detailed infra. It is considered preferable to perform the reactions at 25-37° C. and to use relatively small amounts of membrane protein in the assay. Another preference is to dilute the membranes in a solution containing BSA at the end of the reaction period.

EJ cells = assay: Inhibition of EJ cells growth; assay type: cell-based, rat
[2] = tested on: total oncogenic Ras in EJ cells; assay: Total cellular Ras in EJ cells (immunoblot of total homogenate); assay type: cell-based, rat; conditions: 15 hours, total cell homogenate; read-out: EC50 for decrease in the total amount of Ras in EJ cells
Description: In experiments where the total amount of Ras was estimated, the cells were homogenized as detailed above and samples of the total cell-homogenate (15 μg protein) were loaded onto the gel. For immunoblotting, we have also used the pan-Ras Ab (Calbiochem) at a 1:2000 dilution, and anti-mouse IgG-HRP at a 1:7500 dilution. To develop, the blots were exposed to ECL. The same immunoblotting procedure was also used in the cell-free system experiments. If Ras is degraded after it is dislodged, total cellular Ras should fall after FTS treatment. To investigate this, EJ cells were incubated for 15 hours, with various concentrations of FTS as detailed in FIG. 3, supra, then homogenized and total cell Ras measured by immunoblot assay. FTS caused a dose dependent decrease in the total amount of Ras in treated EJ cells. Densitometric analysis of data, such as that of FIG. 5A, is presented in FIG. 5B as the mean percent of control of 3 experiments. The EC5O was 15 μM (FIG. 5B), which is similar to that determined for the effect of FTS on particulate Ras.

[3] = molecular target: T2, oncogenic Ras in EJ cells (Homo sapiens, UniProt P01112, G12V); assay: Dislodging of Ras from membranes in intact EJ cells (particulate/cytosolic fractions, immunoblot); assay type: cell-based, rat
T2 construct: expressed in transfected cells; host or cells: Rat1 fibroblasts transformed with Ha-Ras (EJ cells)
Description: Ha-Ras transformed Rat1 cells (EJ cells) were plated at a density of 4×10^6 cells/10 cm dish. After 3 hr the cells were treated for 15 hr (dose response) or for 2, 6, 12, or 24 hr (time course) with FTS (0-50 μM, dose response) or (25 μM, time course) or (0.1% DMSO, control). The cells were then detached from the dishes and washed in phosphate-buffered saline (PBS). All the subsequent procedures were carried out at 4° C. The cell pellets were homogenized in […] of homogenization buffer 20 mM Tris-HCl, pH=7.6) leupeptine (5 μg/ml), pepstatine (5 μg/ml), benzamidine (1 μM), phenylmethyl-sulphonyl fluoride (1 mM), aprotinine (5 units/ml), and MgCI2 (10 mM). Total cell membranes (P100) and cytosol (S100) were obtained by a 100,000×g centrifugation step (30 min). Following resuspension of the P100 in 750 μl of homogenization buffer, both S100 and P100 received 75 μl of 10×immunoprecipitation buffer (100 mM Tris-HCl, pH=7.5, 1.5 M NaCl, 10% Triton X-100). Samples were frozen for 1 hr at −70° C. and then thawed. Insoluble material was removed by a 10 min 10,000×g spin and the clear supernatant was used for immunoprecipitation. Samples containing 500 μg protein of P100 and the equivalent amount of S100 protein, were incubated for 12 hr with 2 μg of Y13-259 antibodies coupled to agarose bends (Oncogene Science). The beads were then precipitated and washed four times with 1 ml of immunoprecipitation buffer, twice with 1 ml of 20 mM Tris-HCl, pH=7.6, and then resuspended in 20 μl of SDS-sample buffer. Proteins were then separated by 12.5% SDS-PAGE (mini gels) and blotted onto nitrocellulose paper. The paper was blocked with 10% skimmed milk in tris-buffered saline and then incubated for 7 hr with rabbit anti-Ras serum diluted 1:1000 with tris buffered saline containing 10 mg/ml bovine serum albumin and 0.05% tween-20 (anti-Ras antiserum was prepared by immunizing rabbits with recombinant human-Ha-Ras (Marom et al.). Immunoblots were then incubated for 1 hr with 1:5000 dilution of goat anti-rabbit IgG-horseradish peroxidase (HRP) conjugate (Sigma) and developed by exposing to ECL.
Here, EJ cells were plated at a density of 4×10^6 cells/10 cm dish. The plated cells were cultured for 3 hours and then received new media containing 0.1% DMSO with or without 25 μM FTS. The cells were further cultured for 2, 4, 12, or 24 hours before harvesting and fractionation into particulate and cytosolic fractions. Ras proteins were immunoprecipitated from the fractions, subjected to SDS-PAGE, immunoblotted and developed with ECL as described in the methods, supra. The density of the bands produced from the particulate fraction (FIG. 3A) and the cytosolic fraction (FIG. 3B) was measured with a scanning densitometer. The data obtained from the densitometric analysis are presented in FIG. 3C as the ratio of values of test (FTS treated) over control (DMSO only) cells. The mean values of three separate experiments are shown.
Referring to FIGS. 4A and 4B, the effect of FTS in dislodging Ras from EJ cell membranes was investigated for dose dependence. Here, Ras protein concentration was determined in the particulate fraction of EJ cells that were exposed to the indicated concentrations of FTS (0-50 μM) and AFC (50 μM) for 15 hours as detailed for FIG. 3, supra. The densitometric analysis of the immunoblot bands shown in FIG. 4A are presented in FIG. 4B as mean % of control of three experiments.

normal Ras in Rat1 cells = assay: Ras (total and particulate) in Rat1 cells; assay type: cell-based, rat
Description: In experiments where the total amount of Ras was estimated, the cells were homogenized as detailed above and samples of the total cell-homogenate (15 μg protein) were loaded onto the gel. For immunoblotting, we have also used the pan-Ras Ab (Calbiochem) at a 1:2000 dilution, and anti-mouse IgG-HRP at a 1:7500 dilution. To develop, the blots were exposed to ECL. The same immunoblotting procedure was also used in the cell-free system experiments. The effect of FTS on total Ras in Rat1 cells (Rat1 cells have normal rather than oncogenic Ras) was also examined using the same procedures and conditions as that used for EJ cells in FIGS. 5A & 5B. […] However, dislodging normal Ras in Rat1 cells required 50 μM FTS whereas the oncogenic Ras found in EJ cell is dislodged at lower concentrations of the drug (FIG. 5A). Thus, FTS may have some selectivity towards the activated forms of Ras. This may account for the fact that FTS is not toxic at doses that inhibit the growth of Ras dependent cells and tumors (see toxicology section below.)

[4] = Toxicity / cytotoxicity of FTS
Ras = conditions: cited from earlier work
[5] = tested on: Erb B2 and Ha-Ras-transformed cells; conditions: cited from earlier work
[6] = FTS 5-50 μM; cited from earlier work
[7] = tested on: v-raf or T-antigen transformed cells; conditions: cited from earlier work
[8] = tested on: G protein β (Gβ) in EJ cell membranes; assay: Immunoblotting of Gβ in EJ cell membranes; assay type: cell-based, rat; conditions: same conditions as for Ras detection
Description: The level of G protein β (Gβ) was determined in membranes of EJ cells that were grown in the absence and in the presence of FTS in the same conditions that were used for Ras detection. A sample of 25 μg membrane proteins were separated by SDS-PAGE (12.5%), and blotted to nitrocellulose paper. Immunoblots were performed by using rabbit anti Gβ antibodies (dilution of 1:1000) as a first antibody and goat anti rabbit IgG HRP (Sigma) as a second antibody (dilution of 1:5000). To develop, the blots were exposed to ECL.

Dislodging of Ras (% of control) in a cell free system (10 μM drug) [1]: 100 % of control
dislodging of Ras from isolated membrane ([1]; cell free): did not dislodge Ras
SMILES: CC(C)=CCC/C(C)=C/CSc1ccccc1C(=O)O [GTS, geranyl thiosalicylic acid]
Inhibition of EJ cells Growth EC50 (μM) (EJ cells; EJ cells): Not active at 50 μM

Dislodging of Ras (% of control) in a cell free system (10 μM drug) [1]: 110 % of control
dislodging of Ras from isolated membrane ([1]; cell free): did not dislodge Ras
SMILES: COC(=O)c1ccccc1SCC=C(C)CCC=C(C)CCC=C(C)C [FMTS, carboxymethyl FTS]
Inhibition of EJ cells Growth EC50 (μM) (EJ cells; EJ cells): Not active at 50 μM

Dislodging of Ras (% of control) in a cell free system (10 μM drug) [1]: 87 % of control
SMILES: CC(C)=CCC/C(C)=C/CC/C(C)=C/CSc1ccc(Cl)cc1C(=O)O [5-Cl-FTS]
EC50 (EJ cells; EJ cells): 8.5 ± 2.4 µM

Dislodging of Ras (% of control) in a cell free system (10 μM drug) [1]: 109 % of control
dislodging of Ras from isolated membrane ([1]; cell free): did not dislodge Ras
SMILES: CC(C)=CCC/C(C)=C/CC/C(C)=C/CSc1c(Cl)cccc1C(=O)O [3-CI-FTS]
EC50 (EJ cells; EJ cells): > 50 µM

Dislodging of Ras (% of control) in a cell free system (10 μM drug) [1]: 56 % of control
EC50 ([1]; cell free, 60 min at 37° C.): 10 to 15 µM
EC50 [2]: 15 µM
cytosolic Ras after exposure ([3]; FTS 25 μM, 2 to 6 hours after exposure, transient): significant increase in cytosolic Ras
decrease in the amount of particulate Ras versus control levels ([3]; FTS 25 μM, after 24 hours, EJ cells, densitometry, 3 experiments): 80%
concentration range that will produce maximal displacement of Ras ([3]; cell membranes): 10 to 50 µM
concentrations required to dislodge Ras from cell membranes ([3]; cell membranes): < 25 µM
EC50 ([3]; intact EJ cells, 15 hours, 0-50 μM, read-out: EC50 for dislodging Ras from EJ cell membranes (particulate Ras)): ~10 µM
SMILES: CC(C)=CCCC(C)=CCCC(C)=CCSc1ccccc1C(=O)O [FTS, Farnesylthiosalicylic acid]
concentration required for dislodging normal Ras in Rat1 cells (normal Ras in Rat1 cells; particulate Ras, Rat1 cells): 50 µM
effect on total Ras in Rat1 cells (normal Ras in Rat1 cells; same conditions as EJ cells, dose response shifted to the right): significant decrease in Ras
toxicity at doses that inhibit the growth of Ras dependent cells and tumors [4]: not toxic
inhibition of farnesylation or methylation of Ras in intact cells (Ras): does not inhibit farnesylation or methylation of Ras
concentration range of dose-dependent growth inhibition [5]: 1-25 μm
cytotoxicity at growth-inhibiting concentrations [6]: without producing cytotoxicity
EC50 (EJ cells; Rattus norvegicus, EJ): 7.5 ± 3.7 µM
effect on growth of v-raf or T-antigen transformed cells [7]: does not affect the growth
amount of Gβ associated with EJ cell membranes [8]: did not reduce the amount of Gβ

Dislodging of Ras (% of control) in a cell free system (10 μM drug) [1]: 85 % of control
SMILES: CC(C)=CCCC(C)=CCCC(C)=CCSc1cc(Cl)ccc1C(=O)O [4-Cl-FTS]
EC50 (EJ cells; EJ cells): 28 ± 3 µM
